In patent US6774143B1, “Method for treating cells resistant to antineoplastic agents” (Novartis AG, priority 2003, dated 2004):
≈ marks a conversion by molar mass, not a printed value.

What was measured:
1A9 cells = experiment: In vitro cytotoxicity assay (MTT); assay type: cell-based; conditions: Homo sapiens, 1A9, 1A9 cells; cytotoxic control; experiment not specified; read-out: IC50
Procedure: (§1) 1A9 and 1A9PTX22 cells are plated in 96-well plates at 5×10^4 cells/well, plced in a tissue culture incubator and allowed to attach overnight. The next morning, the number of viable cells in the “time 0” plate (3 wells for each cell line) is determined using an MTT assay (Alley M C, et al., Cancer Res. 1988, 48:589-601).
(§2) At the same time drugs are added in serial, 10-fold dilutions, to the experimental plates. Corresponding vehicles are added to control plates. Experimental and control plates are then incubated in the tissue culture incubator for 72 hours. After the incubation the number of viable cells is determined in each plate using the MTT assay. IC50s (defined as a concentration of a given compound causing 50% inhibition of cell growth) are determined by comparing cell growth in the drug-treated plate (T−T0) to the cell growth in the corresponding control plate (C−T0). For each experiment results are calculated using average numbers from two sets of plates.
(§3) Discodermolide is isolated from the sponge Discodermia dissoluta using the method of Gunasekera SP (supra). Multiple batches of compound of similar purity (all>95% pure, as determined by mass spectrometry, and nuclear magnetic resonance analysis) are used throughout the various studies. For the in vitro cytotoxicity assays all compounds are dissolved in DMSO and are added to the plates with cells to obtain desired concentrations. […] Paclitaxel is purchased from Sigma/Aldrich, (St. Louis, Mo.). For the in vivo hollow fiber assay, solid discodermolide is dissolved in pure ethanol to create a stock solution which is diluted just before dosing with Cremophor EL and D5W to a final concentration of 16.7% Cremophor EL, 8.3% ethanol and 75% D5W. The compound is administered to mice as a single, 15 mg/kg iv injection. Positive control animals receive clinical formulations of paclitaxel (TAXOL) diluted 4-fold with D5W (12.5% Cremophor El, 12.5% ethanol and 75% D5W final concentrations) and administered iv, at 15 mg/kg, once daily for five consecutive days. Vehicle controls are administered according to the corresponding drug schedules.

[1] = test system: 1A9PTX22 cells (β-tubulin mutation); experiment: In vitro cytotoxicity assay (MTT); assay type: cell-based, human
Procedure: as §1, §2, §3

## COc1cccc2c1C(=O)c1c(O)c3c(c(O)c1C2=O)C[C@@](O)(C(=O)CO)C[C@@H]3O[C@H]1C[C@H](N)[C@H](O)[C@H](C)O1 [Doxorubicin]
1A9 cells
  IC50: 3 ng/mL (≈ 5.52 nM)
[1]; Homo sapiens, 1A9/ptx-22, 1A9PTX22 cells, cytotoxic control, experiment not specified, read-out: IC50
  IC50: 3 to 5 ng/mL (≈ 5.52 to 9.2 nM)
[1]; from IC50s of the two in vitro experiments
  fold resistance of 1A9PTX22 versus parental 1A9: 2 fold
